This assay concerns murine bone marrow-derived dendritic cells (BM-DCs). The assay is described as follows: Cytokine/chemokine secretion by murine bone marrow-derived dendritic cells (ELISA). In kind it is cell-based, mouse. The arrangement: key to TNFα secretion / IL-18 secretion / IL-8 secretion / IL-10 secretion / IL-2 secretion / IL-1β secretion / IL-5 secretion / IL-6 secretion / IL-12 secretion: “+” indicates an increase; “−” indicates no change relative to untreated cells (medium). The following applies: for IL-1β secretion / IL-2 secretion / IL-5 secretion / IL-6 secretion / IL-8 secretion / IL-10 secretion / IL-12 secretion / IL-18 secretion / TNFα secretion: MURINE DC, ELISA 48 h after exposure, relative to untreated cells; for IL-1β secretion / IL-2 secretion / IL-5 secretion / IL-6 secretion / IL-8 secretion / IL-10 secretion / IL-12 secretion / IL-18 secretion / TNFα secretion / secretion of IL-1β / secretion of IL-2 / secretion of IL-8 / secretion of IL-5 / secretion of IL-18 / secretion of TNF-α / secretion of IL-12 (p70): peptides 200 μg/ml, HMGB1-Bx 50 μg/ml; for cytokine secretion by murine BM-DCs / secretion of IL-1β / secretion of IL-2 / secretion of IL-8 / secretion of IL-5 / secretion of IL-18 / secretion of TNF-α / secretion of IL-12 (p70): murine BM-DCs; for secretion of IL-1β: FIG. 2A; for secretion of IL-1β / secretion of IL-2 / secretion of IL-8 / secretion of IL-5 / secretion of IL-18 / secretion of TNF-α / secretion of IL-12 (p70): 48 h; for secretion of IL-2: FIG. 2C; for secretion of IL-8: FIG. 2D; for secretion of IL-5: FIG. 2E; for secretion of IL-18: FIG. 2F; for secretion of TNF-α: FIG. 2G; for secretion of IL-12 (p70): FIGS. 2B, 2H. The method, then:
Bone marrow-derived DCs (BM-DCs) were generated using modifications of the original method described by Inaba, et al. (J. Exp. Med. 1 76:1693-1702 (1992)). In brief, bone marrow suspensions were incubated with red cell lysis buffer (PUREGENE™ RBC Lysis Solution, Gentra Systems, Minneapolis, Minn.) to remove red blood cells. After washing in media, lymphocytes and Ia-positive cells were killed with a cocktail of monoclonal antibodies (mAbs) and rabbit complement for 60 min at 37° C. The mAbs that were used were GK1.5 anti-CD4, TIB211 anti-CD8, TIB 120 anti-Ia, and TIB 146 anti B220 (these mAbs were kindly provided by Dr. Ralph Steinman). The cells were subsequently cultured in media containing 5% FCS and 10 ng/ml recombinant mouse GM-CSF (R&D Systems, Minneapolis, Minn.) for 7 days. For some experiments, the cells were further purified at day 7 using CD11c^+-microbeads (Miltenyi Biotech., Auburn, Calif.), according to the manufacturer's instructions.
Recombinant HMGB1-B box domain (HMGB1-Bx) was expressed in Escherichia coli and purified as described by Li, et al. (Mol. Med. 9:37-45; J. Immunol. Methods 289:211-223 (2004)). Purified HMGB1-Bx contained trace amounts of LPS (19 pg LPS/μg HMGB1-Bx) as measured by the chromogenic Limulus amebocyte lysate assay (BioWhittacker Inc, Walkersville, Md.). All experiments using HMGB1-Bx, as well as the HMGB1 peptides, were performed in the presence of polymyxin B (200 U/ml) to neutralize the amount of contaminating LPS in the HMGB1-Bx and peptide preparations. We have previously shown that the DC stimulatory capacity of HMGB1-Bx requires an intact tertiary structure and is not due to contaminating amounts of LPS, as trypsinization abolished HMGB1-Bx activity (Messmer, et al., J. Immunol. 173: 307-313 (2004); the entire teachings of which are incorporated herein by reference).
Secreted cytokine/chemokine levels were measured by ELISA (Pierce Boston Technology Center, SearchLight™ Proteome Arrays Multiplex Sample Testing Services, Woburn, Mass.) 48 h after addition of the various peptides. Polymyxin B (200 U/ml) was added to all cultures, except those containing LPS, before the stimuli were added. Immature monocyte-derived human dendritic cells (DCs) and immature bone-marrow derived murine dendritic cells (BM-DCs) were cultured either in the presence of HMGB1 peptides (200 μg/ml), whose sequences map to different regions of the HMGB1 protein (see Table 1), the entire HMGB1 B-box domain (HMGB1-Bx) (50 μg/ml), or LPS (100 ng/ml). Untreated cells (medium) were tested as a control. Each peptide was named according to the corresponding position of its first amino acid within the full-length HMGB1 sequence. All peptides were N-terminally biotinylated except “Hp-106 (non bio)”.
(In general: An ELISA detects its analyte on a solid surface through an enzyme-linked reagent.)

Entries after “also recorded” stand apart in the source; their conditions may differ. Where no end group is shown, it is not given here. The star is where a group is joined. Biotin = O=C1N[C@H]2[C@H](CS[C@H]2CCCCC(=O)*)N1

For YAFFVQTCREEHIKKHPD [Hp-16], the IL-1β secretion result is “+”, the IL-2 secretion result is “+”, the IL-5 secretion entry is “+” and the IL-6 secretion result is “−”. The IL-8 secretion entry was “−”, the IL-10 secretion entry is given as “−”, the IL-12 secretion entry is “+” and the IL-18 secretion result is “+”. Further, the TNFα secretion result was “−”, the “cytokine secretion by murine BM-DCs” value is “enhanced cytokine secretion; also recorded: stimulated cytokine secretion”, the “secretion of IL-1β” value is “enhanced secretion” and the “secretion of IL-2” value is recorded as “enhanced secretion”. Further, the “secretion of IL-8” value is “only Hp-106 enhanced secretion”, the “secretion of IL-5” value is on record as “enhanced secretion”, the “secretion of IL-18” value is recorded as “enhanced secretion” and the “secretion of TNF-α” value was “only Hp-106 enhanced secretion”. Further, the “secretion of IL-12 (p70)” value is recorded as “enhanced secretion”.
Turning to “CSEYRPKIKGEHPGLSIG [Hp-106] (Biotin-CSEYRPKIKGEHPGLSIG; listed as Homo sapiens)”, the IL-1β secretion entry is on record as “+”, the IL-2 secretion entry is “+”, the IL-5 secretion result is “+” and the IL-6 secretion entry is listed as “−”. In addition, the IL-8 secretion result is listed as “+”, the IL-10 secretion entry is on record as “−”, the IL-12 secretion result is recorded as “+” and the IL-18 secretion result is reported as “+”. Moreover, the TNFα secretion result is given as “+”, the “cytokine secretion by murine BM-DCs” value was “induced cytokine secretion by murine BM-DCs; also recorded: high levels of cytokine secretion”, the “secretion of IL-1β” value is reported as “enhanced secretion” and the “secretion of IL-2” value is on record as “enhanced secretion”. Also, the “secretion of IL-8” value is on record as “enhanced secretion”, the “secretion of IL-5” value was “enhanced secretion”, the “secretion of IL-18” value is reported as “enhanced secretion” and the “secretion of TNF-α” value is listed as “enhanced secretion”. For the same sequence, the “secretion of IL-12 (p70)” value is “enhanced secretion”.

Source of the values: US8354106B2, “Antibodies against HMGB1 and fragments thereof” (The Feinstein Institute for Medical Research, priority 2005, dated 2013).
